The subject of assay [1] is T1, α-L-rhamnosidase subunit of free naringinase from A. niger KMS.
T1 construct: gene alpha-L-rhamnosidase; native secreted enzyme in a crude naringinase preparation (culture fluid ultrafiltered, acetone precipitated)
In words: p-nitrophenol release at […] nm, initial rates, Lineweaver-Burk. The class given is biochemical, Aspergillus niger. The conditions noted are these: free enzyme (crude naringinase preparation), 0.1 M buffer pH 4.0, 50 °C, substrate 0.4-1.5 mM.

Assay [2] concerns T2, β-D-glucosidase subunit of free naringinase from A. niger KMS.
T2 construct: gene beta-D-glucosidase; native secreted enzyme in a crude naringinase preparation (culture fluid ultrafiltered, acetone precipitated)
The assay is described as above. Format: biochemical, Aspergillus niger. Particulars: free enzyme (crude naringinase preparation), 0.1 M buffer pH 4.0, 50 °C, substrate 0.4-1.5 mM.

Km data for 2 compounds are collected here from article PMC12524486, “Characterization of α-L-Rhamnosidase and β-D-Glucosidase Subunits of Naringinase Immobilized on a Magnetic Polysaccharide Carrier” (International Journal of Molecular Sciences, 2025).

What is called Km is the substrate concentration at which the rate is half of its maximum. As for `C[C@@H]1O[C@@H](Oc2ccc([N+](=O)[O-])cc2)[C@H](O)[C@H](O)[C@H]1O` [pNPR, 4-nitrophenyl α-L-rhamnopyranoside], in assay [1], the Km turned out to be 2080 ± 35.5 µM. `O=[N+]([O-])c1ccc(O[C@@H]2O[C@H](CO)[C@@H](O)[C@H](O)[C@H]2O)cc1` [pNPG, 4-nitrophenyl β-D-glucopyranoside]: in assay [2], the Km was determined as 2720 ± 78 µM.
